In patent US20040147434A1, “Use of enzyme inhibitors of the dipeptidypeptidase iv (ec3.3.14.5) in addition to the aminopeptidase n (ec 3.4.11.2), individually or in a combination thereof, and pharmaceutical preparations thereof for the prevention and/or therapy of ischaemia-caused acute and chronic neurodegenerative process …” (priority 2001, published 2004):

Key:
[1] = system: peripheric mononuclear cells (MNC) or T lymphocytes; details: simultaneous and separate administration of inhibitors of DP IV and APN; cited from earlier work
hippocampal neurons = assay: Neuroprotection in organotypical hippocampus slices after 40 min oxygen and glucose deprivation (propidium iodide fluorescence); type: cell-based, rat; details: exclusively actinonine (10 μm), 24 h before, during and 24 h after ischemia; n=5 experiments
Procedure: FIG. 2: Protective effect of inhibitors of DP IV (I63) and APN (actinonine) on the survival of hippocampal neurons after a transient deprivation of oxygen and glucose: There are shown in the FIG. transmission photographs (respective left sides) and fluorescence photographs (respective right sides) of hippocampus slices 24 h after an experimental ischemia. The intensity of the red fluorescence corresponds to the neuronal cell damage (B, D). The slices shown in FIGS. 2A and 2B were subjected to a 40 min deprivation of oxygen and glucose in the absence of DP IV or APN inhibitors. […] The protective effect occurring at a simultaneous application of I63 and actinonine is significant (P=0,0000; calculated by means of a two side heteroscedastic t test) and is about 62%.
Organotypical hippocampus slices were prepared and cultivated according to Striggow F et al. (Striggow, F, Riek M, Breder J, Henrich-Noak P, Reymann K G, Reiser G (2000). The protease thrombin is an endogenous mediator of hippocampal neuroprotection against ischemia at low concentrations but causes degeneration at high concentrations. Proc. Natl. Acad. Sci. (USA) 97: 2264-2269). […] Only after said time, there occurrs a characteristic red fluorescence, the intensity of which is proportional to the neuronal cell damage. […]

Row | Structure (SMILES) | DNA synthesis and proliferation of human immune cells [1] | protective effect on the survival of hippocampal neurons after transient ischemia (hippocampal neurons)
1 | N[C@@H](CCCCNC(=O)OCc1ccc([N+](=O)[O-])cc1)C(=O)N1CCSC1 [I49, Lys[Z(NO2)] thiazolidide] | inhibited | 
2 | CCCCC[C@H](CC(=O)NO)C(=O)N[C@H](C(=O)N1CCC[C@H]1CO)C(C)C [actinonine] | inhibited | about 34%
